For 33 molecules, EC50 results are on record in patent publication US10730863B2, “Bridged bicyclic compounds as farnesoid X receptor modulators” (BRISTOL-MYERS SQUIBB COMPANY, priority 2017, dated 2020).

The target in the test is FXR (Homo sapiens (Human), UniProt Q96RI1). The test is described as follows: FXR EC50 (FXR agonist activity reported with each example). The format is cell-based.
Chain of FXR (Q96RI1 262-486): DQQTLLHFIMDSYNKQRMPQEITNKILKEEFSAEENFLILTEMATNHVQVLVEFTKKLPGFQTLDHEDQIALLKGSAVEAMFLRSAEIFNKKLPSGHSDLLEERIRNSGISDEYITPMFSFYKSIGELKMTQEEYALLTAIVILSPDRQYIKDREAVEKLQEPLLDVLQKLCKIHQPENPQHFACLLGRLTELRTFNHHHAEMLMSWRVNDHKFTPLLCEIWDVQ
Turning to `O=C(O)c1cc(C(F)(F)F)c2cc(OCC34CCC(/C=C/c5c(-c6c(Cl)cncc6Cl)noc5C5CC5)(CC3)CO4)ccc2n1` [Example 500, (E)-6-((4-(2-(5-cyclopropyl-3-(3,5-dichloropyridin-4-yl)isoxazol-4-yl)vinyl)-2-oxabicyclo[2.2.2]octan-1-yl)methoxy)-4-(trifluoromethyl)quinoline-2-carboxylic acid], the EC50 came to 160 nM.

As to `CCc1cc(C(=O)O)nc2ccc(OCC34CCC(OCc5c(-c6c(Cl)cncc6Cl)noc5C5CC5)(CC3)CC4)cc12` [Example 347], the midpoint of the response, the EC50, lay at 24 nM.

In the case of `O=C(O)c1ccc2nc(OCC34CCC(OCc5c(-c6c(Cl)cncc6Cl)noc5C5CC5)(CC3)CC4)ccc2n1` [Example 298, 6-((4-((5-cyclopropyl-3-(3,5-dichloropyridin-4-yl)isoxazol-4-yl)methoxy)bicyclo[2.2.2]octan-1-yl)methoxy)-1,5-naphthyridine-2-carboxylic acid], the EC50 is 63 nM.

Molecule `O=C(O)c1cc(C(F)(F)F)cc(C23CCC(COCc4c(-c5c(Cl)cncc5Cl)noc4C4CC4)(CC2)CO3)c1` [Example 490, 3-(4-(((5-cyclopropyl-3-(3,5-dichloropyridin-4-yl)isoxazol-4-yl)methoxy)methyl)-2-oxabicyclo[2.2.2]octan-1-yl)-5-(trifluoromethyl)benzoic acid] yielded an EC50 of 96 nM.

In turn, `O=C(O)c1cc(NC(=O)C23CCC(OCc4c(-c5c(Cl)cncc5Cl)noc4C4CC4)(CC2)CC3)cc(C(F)(F)F)c1` [Example 433, 3-(4-((5-cyclopropyl-3-(3,5-dichloropyridin-4-yl)isoxazol-4-yl)methoxy)bicyclo[2.2.2]octane-1-carboxamido)-5-(trifluoromethyl)benzoic acid] had an EC50 of 1300 nM.

`O=C(O)c1c(OC2CCC2)cc(Cl)c2nc(C34CCC(OCc5c(-c6c(Cl)cncc6Cl)noc5C5CC5)(CC3)CC4)ccc12` [Example 429]: the concentration giving a half-maximal response (EC50) came to 4 nM.

`O=C(O)c1cc(F)c2nc(C34CCC(OCc5c(-c6ccccc6C(F)(F)F)noc5C5CC5)(CC3)CC4)sc2c1` [Example 51] came in with a concentration for a half-maximal effect (EC50) of 500 nM.

`O=C(O)c1cccc(-c2nnc(C34CCC(OCc5c(-c6ccccc6OC(F)(F)F)noc5C5CC5)(CC3)CC4)s2)c1` [Example 19, 3-(5-(4-((5-cyclopropyl-3-(2-(trifluoromethoxy)phenyl)isoxazol-4-yl)methoxy)bicyclo[2.2.2]octan-1-yl)-1,3,4-thiadiazol-2-yl)benzoic acid] showed an EC50 of 1700 nM.

The molecule `O=C(O)c1cccc(-c2noc(C34CCC(/C=C\c5c(-c6c(Cl)cccc6Cl)noc5C5CC5)(CC3)CC4)n2)c1` [Example 163, (Z)-3-(5-(4-(2-(5-cyclopropyl-3-(2,6-dichlorophenyl)isoxazol-4-yl)vinyl)bicyclo[2.2.2]octan-1-yl)-1,2,4-oxadiazol-3-yl)benzoic acid] gave a concentration for a half-maximal effect (EC50) of 211 nM.

Turning to `COc1cncc(Cl)c1-c1noc(C2CC2)c1COC12CCC(COc3ccc4cc(C(=O)O)cc(C5CC5)c4n3)(CC1)CC2` [Example 351, 2-((4-((3-(3-chloro-5-methoxypyridin-4-yl)-5-cyclopropylisoxazol-4-yl)methoxy)bicyclo[2.2.2]octan-1-yl)methoxy)-8-cyclopropylquinoline-6-carboxylic acid], the 50% effective concentration (EC50) was 23 nM.

On to `COc1cc(OCC23CCC(OCc4c(-c5c(Cl)cncc5Cl)noc4C4CC4)(CC2)CC3)cnc1C(=O)O` [Example 335, 5-((4-((5-cyclopropyl-3-(3,5-dichloropyridin-4-yl)isoxazol-4-yl)methoxy)bicyclo[2.2.2]octan-1-yl)methoxy)-3-methoxypicolinic acid], for which the midpoint of the response, the EC50, lay at 170 nM.

As to `O=C(O)c1cc(-c2noc(C34CCC(OCc5c(-c6c(Cl)cncc6Cl)noc5C5CC5)(CC3)CC4)n2)ccc1F` [Example 233, 5-(5-(4-((5-cyclopropyl-3-(3,5-dichloropyridin-4-yl)isoxazol-4-yl)methoxy)bicyclo[2.2.2]octan-1-yl)-1,2,4-oxadiazol-3-yl)-2-fluorobenzoic acid], the EC50 worked out at 92 nM.

For the molecule `O=C(O)c1cccc(-c2noc(C34CCC(OCc5c(-c6c(Cl)cccc6Cl)noc5C5CC5)(CC3)CO4)n2)c1` [Example 193, 3-(5-(4-((5-cyclopropyl-3-(2,6-dichlorophenyl)isoxazol-4-yl)methoxy)-2-oxabicyclo[2.2.2]octan-1-yl)-1,2,4-oxadiazol-3-yl)benzoic acid], the concentration for a half-maximal effect (EC50) amounted to 26 nM.

`O=C(O)c1cc(OC(F)F)cc(-c2noc(C34CCC(/C=C/c5c(-c6c(Cl)cncc6Cl)noc5C5CC5)(CC3)OC4)n2)c1` [Example 497, (E)-3-(5-(1-(2-(5-cyclopropyl-3-(3,5-dichloropyridin-4-yl)isoxazol-4-yl)vinyl)-2-oxabicyclo[2.2.2]octan-4-yl)-1,2,4-oxadiazol-3-yl)-5-(difluoromethoxy)benzoic acid]: the concentration giving a half-maximal response (EC50) came to 460 nM.

As for `O=C(O)c1csc(C23CCC(COCc4c(-c5c(Cl)cccc5Cl)noc4C4CC4)(CC2)CO3)n1` [Example 216], the EC50 came to 2000 nM.

On to `O=C(O)c1cccc(-c2nc(C34CCC(OCc5c(-c6ccccc6OC(F)(F)F)noc5C5CC5)(CC3)CC4)no2)n1` [Example 61], for which the 50% effective concentration (EC50) worked out at 840 nM.

`Cc1nc(OCC23CCC(OCc4c(-c5c(Cl)cncc5Cl)noc4C4CC4)(CC2)CC3)sc1C(=O)O` [Example 318] yielded a concentration giving a half-maximal response (EC50) of 180 nM.

Molecule `O=C(O)c1ccc(-c2noc(C34CCC(COCc5c(-c6c(Cl)cccc6Cl)noc5C5CC5)(CC3)CO4)n2)cc1` [Example 211] registered an EC50 of 980 nM.

For `O=C(O)c1cccc(-c2nnc(C34CCC(OCc5c(-c6ccccc6OC(F)(F)F)noc5C5CC5)(CC3)CC4)o2)c1` [Example 18, 3-(5-(4-((5-cyclopropyl-3-(2-(trifluoromethoxy)phenyl)isoxazol-4-yl)methoxy)bicyclo[2.2.2]octan-1-yl)-1,3,4-oxadiazol-2-yl)benzoic acid], a half-maximal effect (EC50) was put at 1100 nM.

Turning to `O=C(O)c1cc(OC(CO)CCl)c2cc(OCC34CCC(OCc5c(-c6c(Cl)cncc6Cl)noc5C5CC5)(CC3)CC4)ccc2n1` (stereo not drawn) [Example 354, 4-((1-chloro-3-hydroxypropan-2-yl)oxy)-6-((4-((5-cyclopropyl-3-(3,5-dichloropyridin-4-yl)isoxazol-4-yl)methoxy)bicyclo[2.2.2]octan-1-yl)methoxy)quinoline-2-carboxylic acid], the midpoint of the response, the EC50, lay at 200 nM.

`NC(=O)c1cc(C(F)(F)F)c2cc(OCC34CCC(OCc5c(-c6c(Cl)cncc6Cl)noc5C5CC5)(CC3)CC4)ccc2n1` [Example 291, 6-((4-((5-cyclopropyl-3-(3,5-dichloropyridin-4-yl)isoxazol-4-yl)methoxy)bicyclo[2.2.2]octan-1-yl)methoxy)-4-(trifluoromethyl)quinoline-2-carboxamide] came in with an EC50 of 230 nM.

The molecule `O=C(O)c1cccc(-c2noc(C34CCC(OCc5c(-c6c(Cl)cccc6Cl)noc5C5CC5)(CC3)C4)n2)c1` [Example 221, 3-(5-((1r,4r)-4-((5-cyclopropyl-3-(2,6-dichlorophenyl)isoxazol-4-yl)methoxy)bicyclo[2.2.1]heptan-1-yl)-1,2,4-oxadiazol-3-yl)benzoic acid] returned a half-maximal effective concentration (EC50) of 300 nM.

As to `O=C(O)c1cc(OCC2CCC2)c2cc(OCC34CCC(OCc5c(-c6c(Cl)cncc6Cl)noc5C5CC5)(CC3)CC4)ccc2n1` [Example 353], a half-maximal response (EC50) required 11 nM.

`O=C(O)c1cccn2c(C#CC34CCC(OCc5c(-c6c(Cl)cncc6Cl)noc5C5CC5)(CC3)CC4)cnc12` [Example 397] had an EC50 of 48 nM.

Consider `O=C(O)c1cncc(-c2noc(C34CCC(OCc5c(-c6ccccc6OC(F)(F)F)noc5C5CC5)(CC3)CC4)n2)c1` [Example 44], for which the midpoint of the response, the EC50, lay at 870 nM.

Molecule `O=C(O)c1cc(F)cc2nc(OCC34CCC(/C=C/c5c(-c6c(Cl)cncc6Cl)noc5C5CC5)(CC3)CC4)sc12` [Example 469, (E)-2-((4-(2-(5-cyclopropyl-3-(3,5-dichloropyridin-4-yl)isoxazol-4-yl)vinyl)bicyclo[2.2.2]octan-1-yl)methoxy)-5-fluorobenzo[d]thiazole-7-carboxylic acid] displayed a concentration giving a half-maximal response (EC50) of 190 nM.

On to `O=C(O)c1cncc(OCC23CCC(OCc4c(-c5c(Cl)cccc5Cl)noc4C4CC4)(CC2)CC3)n1` [Example 112, 6-((4-((5-cyclopropyl-3-(2,6-dichlorophenyl)isoxazol-4-yl)methoxy)bicyclo[2.2.2]octan-1-yl)methoxy)pyrazine-2-carboxylic acid], for which the 50% effective concentration (EC50) amounted to 690 nM.

As to `O=C(O)CC1CCN(C(=O)C23CCC(OCc4c(-c5c(Cl)cccc5Cl)noc4C4CC4)(CC2)CC3)CC1` [Example 145, 2-(1-(4-((5-cyclopropyl-3-(2,6-dichlorophenyl)isoxazol-4-yl)methoxy)bicyclo[2.2.2]octane-1-carbonyl)piperidin-4-yl)acetic acid], the half-maximal effective concentration (EC50) amounted to 3800 nM.

As to `O=C(O)c1ccc(OCC23CCC(OCc4c(-c5c(Cl)cncc5Cl)noc4C4CC4)(CC2)CC3)c(C(F)(F)F)c1` [Example 320], the EC50 was 410 nM.

In turn, `COc1cc(Cl)c2nc(C34CCC(OCc5c(-c6c(Cl)cncc6Cl)noc5C5CC5)(CC3)CC4)ccc2c1C(=O)O` [Example 426, 8-chloro-2-(4-((5-cyclopropyl-3-(3,5-dichloropyridin-4-yl)isoxazol-4-yl)methoxy)bicyclo[2.2.2]octan-1-yl)-6-methoxyquinoline-5-carboxy c acid] displayed an EC50 of 12 nM.

`O=C(O)c1cc(C23CCC(COCc4c(-c5ccccc5OC(F)(F)F)noc4C4CC4)(CC2)CO3)ccc1F` [Example 207] had an EC50 of 570 nM.

`O=C(O)c1ccc(OCC2CC2)c2nc(C34CCC(OCc5c(-c6c(Cl)cncc6Cl)noc5C5CC5)(CC3)CC4)ccc12` [Example 392] displayed an EC50 of 24 nM.

Take `CC(C)Oc1cc(C(=O)O)nc2c(F)cc(OCC34CCC(OCc5c(-c6c(Cl)cncc6Cl)noc5C5CC5)(CC3)CC4)cc12` [Example 304, 6-((4-((5-cyclopropyl-3-(3,5-dichloropyridin-4-yl)isoxazol-4-yl)methoxy)bicyclo[2.2.2]octan-1-yl)methoxy)-8-fluoro-4-isopropoxyquinoline-2-carboxylic acid]: the concentration giving a half-maximal response (EC50) came out at 11 nM.

As a reminder, the EC50 is the concentration needed to bring the measured effect to its halfway point. Higher therefore signals weaker potency.
